From the NIST ThermoML archive (doi:10.1016/j.jct.2010.06.008)

Assay: xn = mol fraction of the nth substance listed
Conditions: 101 kPa, Liquid; for mass density: Vibrating tube method; for speed of sound: Sing-around technique in a fixed-path interferometer

CCC(C)Cl (centres undefined) [2-chlorobutane] + CCCCCCC
mass density [kg/m3]
Conditions | 283.15 K | 298.15 K | 313.15 K
x2 = 0 | 884.34 | 867.474 | 850.266
x2 = 0.0506 | 870.755 | 854.132 | 837.236
x2 = 0.0989 | 858.319 | 841.994 | 825.335
x2 = 0.2012 | 833.412 | 817.61 | 801.474
x2 = 0.3016 | 810.786 | 795.463 | 779.843
x2 = 0.3997 | 790.254 | 775.401 | 760.214
x2 = 0.4984 | 771.15 | 756.698 | 741.962
x2 = 0.5994 | 752.976 | 738.95 | 724.63
x2 = 0.6994 | 736.272 | 722.581 | 708.679
x2 = 0.7996 | 720.631 | 707.328 | 693.773
x2 = 0.9006 | 705.927 | 692.97 | 679.768
x2 = 0.9503 | 699.08 | 686.282 | 673.245

CCCCCCC [heptane] + CC(C)(C)Cl
x1 = 1
Conditions | mass density [kg/m3] | speed of sound [m/s]
283.15 K | 692.422 | 1195.7
298.15 K | 679.783 | 1131
313.15 K | 666.908 | 1067.2

CCCCCCC [heptane] + CC(C)CCl
x1 = 1
Conditions | mass density [kg/m3] | speed of sound [m/s]
283.15 K | 692.422 | 1195.7
298.15 K | 679.783 | 1131
313.15 K | 666.908 | 1067.2

CCCCCCC [heptane] + CCC(C)Cl
Conditions | mass density, 283.15 K [kg/m3] | mass density, 298.15 K [kg/m3] | mass density, 313.15 K [kg/m3] | speed of sound, 313.15 K [m/s]
x1 = 1 | 692.422 | 679.783 | 666.908 | –
x2 = 0 | – | – | – | 1005.3

CCCCCCC [heptane] + CCCCCl
x1 = 1
Conditions | mass density [kg/m3]
283.15 K | 692.422
298.15 K | 679.783
313.15 K | 666.908

CCCCCC [hexane] + CC(C)(C)Cl
x1 = 1
Conditions | mass density [kg/m3] | speed of sound [m/s]
283.15 K | 668.609 | 1145.1
298.15 K | 654.96 | 1077
313.15 K | 641.39 | 1009.9

CCCCCC [hexane] + CC(C)CCl
x1 = 1
Conditions | mass density [kg/m3] | speed of sound [m/s]
283.15 K | 668.609 | 1145.1
298.15 K | 654.96 | 1077
313.15 K | 641.39 | 1009.9

CCCCCC [hexane] + CCC(C)Cl
x1 = 1
Conditions | mass density [kg/m3] | speed of sound [m/s]
283.15 K | 668.609 | 1145.1
298.15 K | 654.96 | 1077
313.15 K | 641.39 | 1009.9

CCCCCC [hexane] + CCCCCl
x1 = 1
Conditions | mass density [kg/m3] | speed of sound [m/s]
283.15 K | 668.609 | 1145.1
298.15 K | 654.96 | 1077
313.15 K | 641.39 | 1009.9
